Laboratory results taken from patent US7393871B2, “Anionic and neutral complexes of ruthenium (II) with nitrogen oxide” (Siega S.R.L., priority 2003, dated 2008).
Where two headings read alike, the source gives them in different places.

Columns and labels:
[1] = test system: MCF-7, a human hormone dependent mammary carcinoma cell line; test: Cytotoxicity, cell viability (MTU test) on MCF-7 cells; assay type: cell-based; conditions: medium with 5% FCS
Description: (§1) The cytotoxicity of the ruthenium complexes prepared in Example 4 and 7 was tested on two significative tumor cell lines: MCF-7, a human hormone dependent mammary carcinoma cell line and TS/A, a murine adenocarcinoma cell line. At day 0 4000 TS/A cells and 5000 MCF-7 cells were sown in 96-welled dishes In 200 μl of culture medium. The culture medium used was RPMI medium supplemented with 10% FCS for the TS/A line and a mixture 1:1 of DMEM and F12 medium supplemented with 10% FCS for MCF-7. At day 1 the culture medium was removed and substituted with an identical medium containing 5% FCS only (control) or 5% FCS and the test compound (complex of example 4 or example 7) at the following concentrations: 0.1 μM, 1 μM, 3 μM, 10 μM, 30 μM, 100 μM, 300 μM, 600 μM and 1000 μM.
(§2) After 24, 48 and 72 hours cell viability was evaluated with a MTU test.

[2] = test system: TS/A, a murine adenocarcinoma cell line; test: Cytotoxicity, cell viability (MTU test) on TS/A cells; assay type: cell-based; conditions: medium with 5% FCS
Description: as §1, §2

[3] = 24 hours exposure, read-out: IC50 MCF-7 24 hours
[4] = 48 hours exposure, read-out: IC50 MCF-7 48 hours
[5] = 72 hours exposure, read-out: IC50 MCF-7 72 hours
[6] = 24 hours exposure, read-out: IC50 TSA 24 hours
[7] = 48 hours exposure, read-out: IC50 TSA 48 hours
[8] = 72 hours exposure, read-out: IC50 TSA 72 hours

Substance | IC50 [1, 3] [µM] | IC50 [1, 4] [µM] | IC50 [1, 5] [µM] | IC50 [2, 6] [µM] | IC50 [2, 7] [µM] | IC50 [2, 8] [µM]
[ImH][trans-Ru^IICl4(Me2SO—O)NO] [Complex of Ex. 4] | 764 | 118 | 26 | 155 | 20 | 17
[Im2H][trans-Ru^IICl4(Im)NO] [Complex of Ex. 7] | 532 | 143 | 18 | 141 | 39 | 33
